Source: patent US20040087653A1, “Methods for the treatment of respiratory diseases and conditions with a selective iNOS inhibitor and a PDE inhibitor and compositions therefor” (priority 2002, published 2004)
pIC50: −log10 of the molar value. Where a name gives a salt, the structure may show the parent alone. Read-outs that look alike come from different tables or passages of the source.

Experiments:
[1] = system: nitrite production in human cartilage explants; experiment: Human cartilage explant assay (IL-1 induced nitrite production); assay type: cell-based; conditions: inhibition of nitrite production, IL-1 stimulated explants
Procedure: Bone pieces are rinsed twice with Dulbecco's Phosphate Buffered Saline (GibcoBRL) and once with Dulbecco's Modified Eagles Medium (GibcoBRL) and placed into a petri dish with phenol red free Minimum Essential Medium (MEM) (GibcoBRL). Cartilage was cut into small explants of approximately 15-45 mg in weight and one or two explants per well are placed into either 96 or 48 well culture plates with 200-500 μL of culture media per well. The culture media was either a custom modification of Minimum Essential Medium(Eagle) with Earle's salts (GibcoBRL) prepared without L-Arginine, without L-Glutamine and without phenol red or a custom modification of serumless Neuman and Tytell (GibcoBRL) medium prepared without L-arginine, without insulin, without ascorbic acid, without L-glutamine and without phenol red. Both are supplemented before use with 100 μM L-Arginine (Sigma), 2 mM L-glutamine, 1× HL-1 supplement (BioWhittaker), […] ascorbic acid (Sigma) and 150 pg/ml recombinant human IL-1[…] (RD Systems) to induce nitric oxide synthase. Compounds are then added in 10 μL aliquots and the explants incubated at 37° C. with 5% CO2 for 18-24 hours. The day old supernatant is then discarded and replaced with fresh culture media containing recombinant human IL-1β and compound and incubated for another 20-24 hours. […] All samples are done in quadruplicate. Unstimulated controls are cultured in media in the absence of recombinant human IL-1 □. IC50 values (Table II) are determined from plotting the percent inhibition of nitrite production at six different concentrations of inhibitor.

[2] = target: i-NOS (Homo sapiens, UniProt P35228); experiment: i-NOS inhibition, comparison with NIL amides
[3] = system: LPS-induced increase in plasma nitrite/nitrate levels; experiment: In vivo assay: plasma nitrite/nitrate in endotoxin-treated rats; conditions: oral administration, plasma nitrite/nitrate 5 hours post-treatment
Procedure: Plasma nitrite/nitrate levels can be determined 5 hours post-treatment.

[4] = system: exhaled NO; conditions: high doses; cited from earlier work
[5] = system: iNOS protein expression in human primary airway epithelial cells; experiment: Western blotting of iNOS from cultured epithelial cells; assay type: cell-based; conditions: cytokine-stimulated cells, various concentrations
Procedure: Western blotting of iNOS from cultured epithelial cells: Following incubation with the cytokine mixture alone or with various concentrations of L-NIL, epithelial cells were lysed in 50 mM Tris/HCl, pH 7.4, containing 0.25 mM ethylene diaminotetraacetic acid, 0.5 mM phenylmethylsulfonyl fluoride, 5 μg/ml antipain, 5 μg/ml leupeptin and 5 μg/ml benzaminidine. The protein concentration was determined using the BioRad protein assay kit according to the manufacturer's instructions. Cell proteins were solubilized in sodium dodecyl sulfate polyacrylamide gel electrophoresis sample buffer ([…] Tris/HCl, pH 6.8, containing 10% v/v glycerol, 1% w/v SDS, 1% w/v β-mercaptoethanol, and 0.01% w/v bromophenol blue). The proteins (15 μg per lane) were resolved by electrophoresis in 3-8% (w/v) Tris-acetate SDS-polyacrylamide gels and transferred to Hybond-Enhanced Chemi-luminescence (ECL) nitro-cellulose membranes. Equal protein loading was determined by staining the blot with 0.1% (w/v) Ponceau S in 5% (v/v) acetic acid. The nitro-cellulose was then blocked overnight at 4° C. in 0.5M Tris-HCl,pH 7.4, containing 3% (w/v) normal goat serum, 1% (w/v) bovine serum albumin and 0.05% (v/v) Tween-20. […]
Media was harvested and measured for nitrite content (FIG. 1). […]

[6] = system: human primary airway epithelial cells; experiment: Nitrite in media of cytokine-stimulated human primary airway epithelial cells; assay type: cell-based; conditions: cells cultured 24 h with 50 ng/ml IL-1β, TNF-α and IFN-γ; read-out: IC50, inhibition of the increase in nitrite in the media
Procedure: Human primary airway epithelial cell cultures: Human primary airway epithelial cells were cultured as described previously (see Donnelly,L. E. and Barnes,P. J. Am J Respir Cell Mol.Biol 24:295-303 (2000)), and the amount of nitrite, the stable oxidation product of NO, in the cell culture media was measured using a modification of the spectrofluorometric method of Misko et al., Anal. Biochem. 4:11-16 (1993).
The protein was evenly distributed throughout the cytoplasm in basal cells but clearly located beneath the cilia in the columnar, ciliated cells. Treatment of airway epithelial cells with 50 ng/ml of IL-1β, TNF-α and IFN-γ (cytomix) for 24 h caused an induction of iNOS protein and an increase in the accumulation of nitrite in cell culture media from 2.20±0.2 μM in the absence of cytomix, to 3.5±0.4 μM in the presence of cytomix.
Media was harvested and measured for nitrite content (FIG. 1). Cellular proteins were resolved on 3-8% tris-acetate polyacrylamide gels and immunoblotted for iNOS protein (FIG. 2).

[7] = target: PDE V (Homo sapiens, UniProt O76074); conditions: printed only as numerator of 8/0.0008; cited from earlier work
[8] = system: PDE IV; experiment: PDE IV inhibition (Hatzelmann et al.)
Procedure: PDE inhibition is then determined by the presence or absence of substrate degradation products. […] The relative ability of an inhibitory compound to slow or prevent the degradation of tritiated cyclic nucleotides is one test that is indicative of how well the compound in question selects one or more of each isoform to inhibit.
In practice, the in vitro selectivity of a PDE IV inhibitor may vary depending upon the condition under which the test is performed and on the inhibitors being tested. However, for the purposes of this specification, the selectivity of a PDE IV inhibitor can be measured as a ratio of the in vitro IC50 value for inhibition of any other isoform of the phosphodiesterase enzyme (Z) other than PDE IV, divided by the IC50 value for inhibition of PDE IV (PDE Z IC50/PDE IV IC50), where Z identifies any PDE other than PDE IV.

[9] = system: PDE I; conditions: Hatzelmann et al. 2001; cited from earlier work
[10] = system: T1, PDE IV; conditions: Hatzelmann et al. 2001; cited from earlier work
T1 construct: other: Hatzelmann et al. 2001

[11] = Rattus norvegicus, read-out: ED50

Sequence of i-NOS (P35228 whole entry): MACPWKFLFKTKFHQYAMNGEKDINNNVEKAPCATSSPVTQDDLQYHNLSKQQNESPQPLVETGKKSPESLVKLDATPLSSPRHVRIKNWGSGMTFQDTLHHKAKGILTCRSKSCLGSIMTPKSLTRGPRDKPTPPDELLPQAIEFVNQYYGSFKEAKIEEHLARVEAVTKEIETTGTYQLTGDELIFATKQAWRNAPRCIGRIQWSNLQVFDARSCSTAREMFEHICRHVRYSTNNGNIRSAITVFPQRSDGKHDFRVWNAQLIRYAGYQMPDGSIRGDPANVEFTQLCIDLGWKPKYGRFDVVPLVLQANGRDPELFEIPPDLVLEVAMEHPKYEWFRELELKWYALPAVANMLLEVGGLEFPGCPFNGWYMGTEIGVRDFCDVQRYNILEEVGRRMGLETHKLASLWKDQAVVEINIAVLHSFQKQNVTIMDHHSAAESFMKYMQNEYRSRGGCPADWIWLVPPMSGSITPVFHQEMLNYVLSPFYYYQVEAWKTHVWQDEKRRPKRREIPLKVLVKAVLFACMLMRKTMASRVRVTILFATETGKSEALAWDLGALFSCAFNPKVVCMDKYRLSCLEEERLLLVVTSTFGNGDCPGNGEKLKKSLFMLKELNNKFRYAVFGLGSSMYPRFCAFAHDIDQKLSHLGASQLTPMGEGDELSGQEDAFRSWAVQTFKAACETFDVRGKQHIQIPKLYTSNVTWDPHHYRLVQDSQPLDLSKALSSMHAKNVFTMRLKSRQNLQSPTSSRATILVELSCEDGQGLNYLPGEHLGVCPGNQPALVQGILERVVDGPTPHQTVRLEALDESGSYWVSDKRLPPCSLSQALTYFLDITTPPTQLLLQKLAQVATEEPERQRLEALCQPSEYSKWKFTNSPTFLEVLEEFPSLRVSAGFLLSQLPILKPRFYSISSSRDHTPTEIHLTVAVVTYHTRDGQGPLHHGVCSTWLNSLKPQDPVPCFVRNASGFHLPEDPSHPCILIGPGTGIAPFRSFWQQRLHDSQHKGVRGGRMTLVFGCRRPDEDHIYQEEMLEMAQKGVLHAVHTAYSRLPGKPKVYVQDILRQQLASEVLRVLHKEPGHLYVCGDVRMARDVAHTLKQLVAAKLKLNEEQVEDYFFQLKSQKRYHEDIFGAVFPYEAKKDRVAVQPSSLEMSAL

SMILES	pIC50 ([1]; Homo sapiens)	ED50 [3, 11] [mg/kg]	other results
CC(=N)NCC(F)=CCC[C@H](N)C(=O)O (mixture of isomers) [Example B, (2S,5E/Z)-2-amino-6-fluoro-7-[(1-iminoethyl)amino]-5-heptenoic acid, dihydrochloride]	6.70	–	–
CC(=N)NCCCC[C@H](N)C(=O)Nc1nnn[nH]1 [Example 1, 2S-amino-6-[(1-iminoethyl)amino]-N-(1H-tetrazol-5-yl)hexanamide, hydrate, dihydrochloride]	–	–	selectivity compared with NIL amide or NIL dimethylamide [2]: more selective
CC(=N)NC/C(F)=C\CC[C@H](N)C(=O)O [Example A, (2S,5E)-2-amino-6-fluoro-7-[(1-iminoethyl)amino]-5-heptenoic acid, dihydrochloride]	7.00	< 0.1	ED50 ([3]; dihydrochloride): <0.1 mg/kg
CC(=N)NC/C(F)=C/CC[C@H](N)C(=O)O [Example D, (2S,5Z)-2-amino-6-fluoro-7-[(1-iminoethyl)amino]-5-heptenoic acid, trihydrochloride, dihydrate]	5.60	> 10	–
CC(=NO)NC/C(F)=C\CC[C@H](N)C(=O)O [Example G, (2S,5E)-2-amino-6-fluoro-7-[(1-hydroximinoethyl)amino]-5-heptenoic acid]	–	< 0.1	melting point: 198 to 200 °C
CC(=N)NC/C(F)=C\CC[C@H](N)C(=O)Nc1nnn[nH]1 [Example H, (2S,5E)-2-amino-6-fluoro-7-[(1-iminoethyl)amino]-N-(1H-tetrazol-5-yl) 5-heptenamide, dihydrochloride]	–	< 0.3	–
CC(=N)NC/C(F)=C\CC[C@](C)(N)C(=O)O.Cl.Cl [Example HH, (2S,5E)-2-amino-2-methyl-6-fluoro-7-[(1-iminoethyl)amino]-5-heptenoic acid, dihydrochloride]	6.40	0.4	–
COC[C@](N)(CSCCNC(C)=N)C(=O)O [Example J, 2-[[[2-[(1-Iminoethyl)amino]ethyl]thio]methyl]-O-methyl-D-serine, dihydrochloride]	–	–	pIC50 [1]: 5.09
CC(=N)NC/C=C\CC[C@](C)(N)C(=O)O.Cl.Cl [Example LL, (2S,5Z)-2-amino-2-methyl-7-[(1-iminoethyl)amino]-5-heptenoic acid, dihydrochloride]	6.10	0.3	–
N=C1CCCC[C@H](CCCC[C@@H](N)C(=O)O)N1 [Example V, (α,2S)-.α-aminohexahydro-7-imino-1H-azepine-2-hexanoic acid, trihydrate hydrochloride]	> 5.00	< 3	–
N=C1CCCC[C@@H](CCCC[C@H](N)C(=O)O)N1 [Example W, (αS,2R)-α-aminohexahydro-7-imino-1H-azepine-2-hexanoic acid, trihydrate hydrochloride]	< 4.52	–	–
N=C1CCCC[C@H](CCCC[C@H](N)C(=O)O)N1 [Example X, (αS,2S)-α-aminohexahydro-7-imino-1H-azepine-2-hexanoic acid, trihydrate hydrochloride]	–	–	pIC50 [1]: > 5.00
Cl.N=C1CCCC[C@H](CCCC[C@@H](N)C(=O)O)N1.O.O.O [Example Y, (αR,2S)-α-aminohexahydro-7-imino-1H-azepine-2-hexanoic acid, trihydrate hydrochloride]	–	< 3	–
N=C1CCCC[C@H](CCCC[C@H](N)C(=O)O)N1 [Example Z, (αS,2S)-α-aminohexahydro-7-imino-1H-azepine-2-hexanoic acid, trihydrate hydrochloride]	> 5.00	–	–
COC(=O)[C@@H](N)CCCNC(=N)N[N+](=O)[O-] [L-NAME]	–	–	inhibition of exhaled NO [4]: approximately 70%
CC(=N)NCCCC[C@H](N)C(=O)O [L-NIL]	–	–	effect on iNOS expression as detected by immunoblotting [5]: did not affect iNOS expression; pIC50 [6]: ~5.24
N=C(N)NN [amino-guanidine]	–	–	inhibition of exhaled NO [4]: approximately 70%
O=C(Nc1c(Cl)cncc1Cl)c1ccc(OC(F)F)c(OCC2CC2)c1 [roflumilast]	–	–	pIC50 [7]: 5.10; selectivity for PDE IV as compared with PDE I ([8]; PDE I IC50/PDE IV IC50): at least 12,500; selectivity for PDE IV as compared with PDE V ([8]; PDE V IC50/PDE IV IC50): at least 10,000; pIC50 [9]: < 5.00; pIC50 [10]: 9.10
